The source of these data is ChEMBL document CHEMBL1125295, “Synthesis and some pharmacological properties of potent and selective antagonists of the vasopressor (V1-receptor) response to arginine-vasopressin” (J Med Chem, 1992).

The target of assay [1] is Vasopressin V1 receptor (Rattus norvegicus) (UniProt P48974+P30560). Put plainly: Dose that reduces blood pressure response in rats. The assay is classed as functional.
Assay [2] deals with Vasopressin V2 receptor (Rattus norvegicus) (UniProt Q00788). Put plainly: Dose that reduces urine flow in water-loaded rats. The assay is classed as functional.
Sequence of Vasopressin V2 receptor (Rattus norvegicus) (Q00788 whole entry): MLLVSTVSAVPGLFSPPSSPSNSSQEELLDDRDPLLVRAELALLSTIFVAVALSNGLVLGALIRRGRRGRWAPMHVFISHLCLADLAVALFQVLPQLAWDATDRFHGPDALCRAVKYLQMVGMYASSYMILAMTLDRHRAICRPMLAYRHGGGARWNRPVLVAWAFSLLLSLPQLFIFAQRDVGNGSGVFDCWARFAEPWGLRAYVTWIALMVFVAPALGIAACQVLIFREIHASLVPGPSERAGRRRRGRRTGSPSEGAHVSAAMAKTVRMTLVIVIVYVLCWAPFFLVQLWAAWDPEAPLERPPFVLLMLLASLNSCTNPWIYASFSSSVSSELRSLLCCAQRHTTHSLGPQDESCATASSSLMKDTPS
The target in assay [3] is Vasopressin V1 receptor (Rattus norvegicus, UniProt P48974+P30560). The assay is described as follows: In vivo vasopressin V1-antagonistic activity was determined by measuring the blood pressure response in rats. The assay is classed as functional, organism-based.
Assay [4] addresses Vasopressin V2 receptor (Rattus norvegicus, UniProt Q00788). Put plainly: In vivo antidiuretic V2-antagonistic activity was measured as changes in urine flow in water-loaded rats and is expressed as the negative logarithm of the ''effective dose divided by the estimated volume of distribution (67 mL/kg). The assay is classed as functional, organism-based. Particulars: read-out: pA2 (converted).

The nature of assay [5]: Ratio of antidiuretic V2 effective dose to that of vasopressin V1 effective dose. The class given is functional, Urine.

*1 amine or outer side, *2 acyl side, *3 side chain or, on linkers, in order; H or OH if unused. Where a SMILES comes first, the peptide text is derived from it. Bridges are numbered along the chain shown (N, C = ends). The star is where a group is joined. Ethylenediamine = C(CN[*:2])N[*:1]; X1 = O=C(CC1(S[*:2])CCCCC1)[*:1]; X2 = CC(C)(CC(=O)[*:1])S[*:2]; NHBu = CCCCN*

Sequence of Vasopressin V2 receptor (Q00788 whole entry): as above
Sequence of Vasopressin V1 receptor (Rattus norvegicus) (P30560 whole entry, looked up): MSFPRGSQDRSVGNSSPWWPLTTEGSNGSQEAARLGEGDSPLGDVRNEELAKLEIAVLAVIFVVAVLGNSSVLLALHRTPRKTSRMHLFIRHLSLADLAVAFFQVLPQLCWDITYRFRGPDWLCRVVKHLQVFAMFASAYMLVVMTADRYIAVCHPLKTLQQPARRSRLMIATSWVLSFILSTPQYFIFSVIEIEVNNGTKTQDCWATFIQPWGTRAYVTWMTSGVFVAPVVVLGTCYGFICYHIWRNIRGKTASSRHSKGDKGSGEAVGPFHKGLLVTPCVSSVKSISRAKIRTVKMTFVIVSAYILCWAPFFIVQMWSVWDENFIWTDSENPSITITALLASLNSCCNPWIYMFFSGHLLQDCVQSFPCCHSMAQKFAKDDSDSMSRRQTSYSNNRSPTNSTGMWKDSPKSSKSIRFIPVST
Sequence of Vasopressin V1 receptor (Rattus norvegicus) (P48974 whole entry, looked up): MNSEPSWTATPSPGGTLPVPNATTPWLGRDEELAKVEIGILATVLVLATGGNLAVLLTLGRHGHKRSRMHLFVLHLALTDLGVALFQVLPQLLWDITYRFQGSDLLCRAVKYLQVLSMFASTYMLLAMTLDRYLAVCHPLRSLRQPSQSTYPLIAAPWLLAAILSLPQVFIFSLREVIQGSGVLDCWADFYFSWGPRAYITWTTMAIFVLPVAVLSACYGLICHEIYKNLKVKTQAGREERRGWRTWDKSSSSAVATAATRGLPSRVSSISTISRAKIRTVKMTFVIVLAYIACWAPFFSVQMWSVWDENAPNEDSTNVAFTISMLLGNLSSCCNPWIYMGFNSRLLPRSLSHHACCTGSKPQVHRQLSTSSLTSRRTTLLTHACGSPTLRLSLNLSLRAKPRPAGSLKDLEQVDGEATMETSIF

As to `CC(C)[C@H](NC(=O)[C@H](CCCN=C(N)N)NC(=O)[C@@H]1CCCN1C(=O)[C@H]1CSSC2(CCCCC2)CC(=O)N(C)[C@@H](Cc2ccc(O)cc2)C(=O)N[C@H](Cc2ccccc2)C(=O)N[C@@H](CCC(N)=O)C(=O)N[C@H](CC(N)=O)C(=O)N1)C(N)=O`, the Effective dose amounted to 0.2 nM/kg in assay [1] and 115 nM/kg in assay [2].

On to `CN1C(=O)CC2(CCCCC2)SSC[C@H](C(=O)N2CCC[C@H]2C(=O)N[C@@H](CCCN=C(N)N)C(=O)NCCN)NC(=O)[C@@H](CC(N)=O)NC(=O)[C@H](CCC(N)=O)NC(=O)[C@@H](Cc2ccccc2)NC(=O)[C@@H]1Cc1ccc(O)cc1`, for which the results for the Effective dose in assay [1] and in assay [2] were 0.12 nM/kg and 33 nM/kg, respectively. Consider `CNC(=O)[C@H](CCCN=C(N)N)NC(=O)[C@@H]1CCCN1C(=O)[C@H]1CSSC2(CCCCC2)CC(=O)N(C)[C@@H](Cc2ccc(O)cc2)C(=O)N[C@H](Cc2ccccc2)C(=O)N[C@@H](CCC(N)=O)C(=O)N[C@H](CC(N)=O)C(=O)N1`, for which the results for the Effective dose in assay [1] and in assay [2] were 0.12 nM/kg and 84 nM/kg, respectively. For orientation: pA2 means the negative logarithm of the molar antagonist concentration that doubles the agonist concentration needed for the same response. Turning to `COc1ccc(C[C@@H]2NC(=O)CC3(CCCCC3)SSC[C@@H](C(=O)N3CCC[C@H]3C(=O)N[C@@H](CCCN=C(N)N)C(=O)NCCN)NC(=O)[C@H](CC(N)=O)NC(=O)[C@H](CCC(N)=O)NC(=O)[C@H](Cc3ccccc3)NC2=O)cc1` (Y(Me)FQNCPR-Ethylenediamine; linker N-5 via X1) [listing 1 of 2 here], in assay [3], the pA2 came to 8.75. Further, in assay [4], the Kb is approximately 501 nM. As for `COc1ccc(C[C@@H]2NC(=O)CC3(CCCCC3)SSC[C@@H](C(=O)N3CCC[C@H]3C(=O)N[C@@H](CCCN=C(N)N)C(=O)NCCN)NC(=O)[C@H](CC(N)=O)NC(=O)[C@H](CCC(N)=O)NC(=O)[C@H](Cc3ccccc3)NC2=O)cc1` (Y(Me)FQNCPR-Ethylenediamine; linker N-5 via X1) [listing 2 of 2 here], the Ratio in assay [5] is given as approximately 275. Compound `CNC(=O)[C@H](CCCN=C(N)N)NC(=O)[C@@H]1CCCN1C(=O)[C@@H]1CSSC2(CCCCC2)CC(=O)N[C@@H](Cc2ccc(OC)cc2)C(=O)N[C@@H](Cc2ccccc2)C(=O)N[C@@H](CCC(N)=O)C(=O)N[C@@H](CC(N)=O)C(=O)N1` (Y(Me)FQNCPR-NHMe; linker N-5 via X1) [listing 1 of 2 here] gave a pA2 in assay [3] of 8.73. The Kb in assay [4] was approximately 1260 nM. For the compound `CNC(=O)[C@H](CCCN=C(N)N)NC(=O)[C@@H]1CCCN1C(=O)[C@@H]1CSSC2(CCCCC2)CC(=O)N[C@@H](Cc2ccc(OC)cc2)C(=O)N[C@@H](Cc2ccccc2)C(=O)N[C@@H](CCC(N)=O)C(=O)N[C@@H](CC(N)=O)C(=O)N1` (Y(Me)FQNCPR-NHMe; linker N-5 via X1) [listing 2 of 2 here], the Ratio in assay [5] is approximately 700. The compound `COc1ccc(C[C@@H]2NC(=O)CC3(CCCCC3)SSC[C@@H](C(=O)N3CCC[C@H]3C(=O)N[C@@H](CCCN=C(N)N)C(=O)N[C@@H](C)C(N)=O)NC(=O)[C@H](CC(N)=O)NC(=O)[C@H](CCC(N)=O)NC(=O)[C@H](Cc3ccccc3)NC2=O)cc1` (Y(Me)FQNCPRA-NH2; linker N-5 via X1) [listing 1 of 2 here] registered a pA2 in assay [3] of 8.75. The Kb in assay [4] is approximately 1000 nM. Take `COc1ccc(C[C@@H]2NC(=O)CC3(CCCCC3)SSC[C@@H](C(=O)N3CCC[C@H]3C(=O)N[C@@H](CCCN=C(N)N)C(=O)N[C@@H](C)C(N)=O)NC(=O)[C@H](CC(N)=O)NC(=O)[C@H](CCC(N)=O)NC(=O)[C@H](Cc3ccccc3)NC2=O)cc1` (Y(Me)FQNCPRA-NH2; linker N-5 via X1) [listing 2 of 2 here]: in assay [5], the Ratio is reported as approximately 590. In assay [3], `COc1ccc(C[C@@H]2NC(=O)CC(C)(C)SSC[C@@H](C(=O)N3CCC[C@H]3C(=O)N[C@@H](CCCN=C(N)N)C(=O)N[C@@H](C)C(N)=O)NC(=O)[C@H](CC(N)=O)NC(=O)[C@H](CCC(N)=O)NC(=O)[C@H](Cc3ccccc3)NC2=O)cc1` (Y(Me)FQNCPRA-NH2; linker N-5 via X2) yielded a pA2 of 8.16. `COc1ccc(C[C@@H]2NC(=O)CC3(CCCCC3)SSC[C@@H](C(=O)N3CCC[C@H]3C(=O)N[C@@H](CCCN=C(N)N)C(=O)NCC(=O)NCCN)NC(=O)[C@H](CC(N)=O)NC(=O)[C@H](CCC(N)=O)NC(=O)[C@H](Cc3ccccc3)NC2=O)cc1` (Y(Me)FQNCPRG-Ethylenediamine; linker N-5 via X1) [listing 1 of 2 here] came in with a pA2 in assay [3] of 8.39. The Kb in assay [4] was approximately 251 nM. For `COc1ccc(C[C@@H]2NC(=O)CC3(CCCCC3)SSC[C@@H](C(=O)N3CCC[C@H]3C(=O)N[C@@H](CCCN=C(N)N)C(=O)NCC(=O)NCCN)NC(=O)[C@H](CC(N)=O)NC(=O)[C@H](CCC(N)=O)NC(=O)[C@H](Cc3ccccc3)NC2=O)cc1` (Y(Me)FQNCPRG-Ethylenediamine; linker N-5 via X1) [listing 2 of 2 here], in assay [5], the Ratio was approximately 60.

As to `COc1ccc(C[C@@H]2NC(=O)CC3(CCCCC3)SSC[C@@H](C(=O)N3CCC[C@H]3C(=O)N[C@@H](CCCN=C(N)N)C(=O)NCC(N)=O)NC(=O)[C@H](CC(N)=O)NC(=O)[C@H](CCC(N)=O)NC(=O)[C@H](Cc3ccccc3)NC2=O)cc1` (Y(Me)FQNCPRG-NH2; linker N-5 via X1), the pA2 in assay [3] is recorded as 8.62. The same measure, in the same setting: the figure for `CCCCNC(=O)CNC(=O)[C@H](CCCN=C(N)N)NC(=O)[C@@H]1CCCN1C(=O)[C@@H]1CSSC2(CCCCC2)CC(=O)N[C@@H](Cc2ccc(OC)cc2)C(=O)N[C@@H](Cc2ccccc2)C(=O)N[C@@H](CCC(N)=O)C(=O)N[C@@H](CC(N)=O)C(=O)N1` (Y(Me)FQNCPRG-NHBu; linker N-5 via X1) is 8.44.

`COc1ccc(C[C@@H]2NC(=O)CC3(CCCCC3)SSC[C@@H](C(=O)N3CCC[C@H]3C(=O)N[C@@H](CCCN=C(N)N)C(=O)N[C@@H](CCCN=C(N)N)C(N)=O)NC(=O)[C@H](CC(N)=O)NC(=O)[C@H](CCC(N)=O)NC(=O)[C@H](Cc3ccccc3)NC2=O)cc1` (Y(Me)FQNCPRR-NH2; linker N-5 via X1) returned a pA2 in assay [3] of 8.78. For the same compound, the Kb in assay [4] is approximately 219 nM.

`COc1ccc(C[C@@H]2NC(=O)CC(C)(C)SSC[C@@H](C(=O)N3CCC[C@H]3C(=O)N[C@@H](CCCN=C(N)N)C(=O)N[C@@H](CCCN=C(N)N)C(N)=O)NC(=O)[C@H](CC(N)=O)NC(=O)[C@H](CCC(N)=O)NC(=O)[C@H](Cc3ccccc3)NC2=O)cc1` (Y(Me)FQNCPRR-NH2; linker N-5 via X2) returned a pA2 in assay [3] of 8.52. In assay [3], `COc1ccc(C[C@@H]2NC(=O)CC3(CCCCC3)SSC[C@@H](C(=O)N3CCC[C@H]3C(=O)N[C@@H](CCCN=C(N)N)C(=O)N[C@H](C(N)=O)[C@@H](C)O)NC(=O)[C@H](CC(N)=O)NC(=O)[C@H](CCC(N)=O)NC(=O)[C@H](Cc3ccccc3)NC2=O)cc1` (Y(Me)FQNCPRT-NH2; linker N-5 via X1) [listing 1 of 2 here] returned a pA2 of 8.49. Besides, the Kb in assay [4] was approximately 631 nM.

Consider `COc1ccc(C[C@@H]2NC(=O)CC3(CCCCC3)SSC[C@@H](C(=O)N3CCC[C@H]3C(=O)N[C@@H](CCCN=C(N)N)C(=O)N[C@H](C(N)=O)[C@@H](C)O)NC(=O)[C@H](CC(N)=O)NC(=O)[C@H](CCC(N)=O)NC(=O)[C@H](Cc3ccccc3)NC2=O)cc1` (Y(Me)FQNCPRT-NH2; linker N-5 via X1) [listing 2 of 2 here], for which, in assay [5], the Ratio is listed as approximately 205. `COc1ccc(C[C@@H]2NC(=O)CC(C)(C)SSC[C@@H](C(=O)N3CCC[C@H]3C(=O)N[C@@H](CCCN=C(N)N)C(=O)N[C@H](C(N)=O)[C@@H](C)O)NC(=O)[C@H](CC(N)=O)NC(=O)[C@H](CCC(N)=O)NC(=O)[C@H](Cc3ccccc3)NC2=O)cc1` (Y(Me)FQNCPRT-NH2; linker N-5 via X2) had a pA2 in assay [3] of 8.04.

In assay [3], `COc1ccc(C[C@@H]2NC(=O)CC3(CCCCC3)SSC[C@@H](C(=O)N3CCC[C@H]3C(=O)N[C@@H](CCCN=C(N)N)C(=O)N[C@H](C(N)=O)C(C)C)NC(=O)[C@H](CC(N)=O)NC(=O)[C@H](CCC(N)=O)NC(=O)[C@H](Cc3ccccc3)NC2=O)cc1` (Y(Me)FQNCPRV-NH2; linker N-5 via X1) [listing 1 of 2 here] had a pA2 of 8.57. In assay [4], the Kb was approximately 1580 nM.

Turning to `COc1ccc(C[C@@H]2NC(=O)CC3(CCCCC3)SSC[C@@H](C(=O)N3CCC[C@H]3C(=O)N[C@@H](CCCN=C(N)N)C(=O)N[C@H](C(N)=O)C(C)C)NC(=O)[C@H](CC(N)=O)NC(=O)[C@H](CCC(N)=O)NC(=O)[C@H](Cc3ccccc3)NC2=O)cc1` (Y(Me)FQNCPRV-NH2; linker N-5 via X1) [listing 2 of 2 here], in assay [5], the Ratio was approximately 575. Take `COc1ccc(C[C@@H]2NC(=O)CC(C)(C)SSC[C@@H](C(=O)N3CCC[C@H]3C(=O)N[C@@H](CCCN=C(N)N)C(=O)N[C@H](C(N)=O)C(C)C)NC(=O)[C@H](CC(N)=O)NC(=O)[C@H](CCC(N)=O)NC(=O)[C@H](Cc3ccccc3)NC2=O)cc1` (Y(Me)FQNCPRV-NH2; linker N-5 via X2): the pA2 in assay [3] is on record as 8.05. `COc1ccc(C[C@@H]2NC(=O)CC3(CCCCC3)SSC[C@@H](C(=O)N3CCC[C@H]3C(=O)N[C@@H](CCCN=C(N)N)C(=O)N[C@@H](Cc3ccc(O)cc3)C(N)=O)NC(=O)[C@H](CC(N)=O)NC(=O)[C@H](CCC(N)=O)NC(=O)[C@H](Cc3ccccc3)NC2=O)cc1` (Y(Me)FQNCPRY-NH2; linker N-5 via X1) [listing 1 of 2 here] returned a pA2 in assay [3] of 8.47. For the same compound, in assay [4], the Kb was approximately 1000 nM. For the compound `COc1ccc(C[C@@H]2NC(=O)CC3(CCCCC3)SSC[C@@H](C(=O)N3CCC[C@H]3C(=O)N[C@@H](CCCN=C(N)N)C(=O)N[C@@H](Cc3ccc(O)cc3)C(N)=O)NC(=O)[C@H](CC(N)=O)NC(=O)[C@H](CCC(N)=O)NC(=O)[C@H](Cc3ccccc3)NC2=O)cc1` (Y(Me)FQNCPRY-NH2; linker N-5 via X1) [listing 2 of 2 here], the Ratio in assay [5] is approximately 217. With `COc1ccc(C[C@@H]2NC(=O)CC(C)(C)SSC[C@@H](C(=O)N3CCC[C@H]3C(=O)N[C@@H](CCCN=C(N)N)C(=O)N[C@@H](Cc3ccc(O)cc3)C(N)=O)NC(=O)[C@H](CC(N)=O)NC(=O)[C@H](CCC(N)=O)NC(=O)[C@H](Cc3ccccc3)NC2=O)cc1` (Y(Me)FQNCPRY-NH2; linker N-5 via X2), in assay [3], the pA2 came to 8.25.

As to `COc1ccc(C[C@@H]2NC(=O)CC(C)(C)SSC[C@@H](C(=O)N3CCC[C@H]3C(=O)N[C@@H](CCCN=C(N)N)C(=O)NCC(N)=O)NC(=O)[C@H](CC(N)=O)NC(=O)[C@H](CCC(N)=O)NC(=O)[C@H](Cc3ccccc3)NC2=O)cc1` [DP[TYR(ME)2]AVP] (Y(Me)FQNCPRG-NH2; linker N-5 via X2), in assay [3], the pA2 is reported as 7.96.
